Measured values: PubChem BioAssay (NCI)
“And” between values parts separate entries of the source, which are not always exact repeats. Equal values may be shown once.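 Briefly, cells in 96-well plates were exposed to five compound concentrations for 48 h, and endpoints were estimated by linear interpolation. GI50: concentration for 50% inhibition of growth. Definition used: TGI = concentration required for complete inhibition of growth.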

How the values were obtained:
Assay in all cases: growth of human tumour cells (NCI), 48 h
SNB-19 CNS = system: SNB-19 CNS
OVCAR-8 ovarian = system: OVCAR-8 ovarian
HOP-62 NSCLC = system: HOP-62 NSCLC
BT-549 breast = system: BT-549 breast
SK-MEL-28 melanoma = system: SK-MEL-28 melanoma
SF-268 CNS = system: SF-268 CNS
SF-295 CNS = system: SF-295 CNS
OVCAR-5 ovarian = system: OVCAR-5 ovarian
EKVX NSCLC = system: EKVX NSCLC
HCC-2998 colon = system: HCC-2998 colon

Row | Structure (SMILES) | GI50 (SNB-19 CNS) [µM] | GI50 (OVCAR-8 ovarian) [µM] | GI50 (HOP-62 NSCLC) [µM] | TGI (HOP-62 NSCLC) | GI50 (BT-549 breast) [µM] | TGI (BT-549 breast) [µM] | GI50 (SK-MEL-28 melanoma) [µM] | TGI (SK-MEL-28 melanoma) | GI50 (SF-268 CNS) [µM] | GI50 (SF-295 CNS) [µM] | TGI (SF-295 CNS) | GI50 (OVCAR-5 ovarian) [µM] | TGI (OVCAR-5 ovarian) | GI50 (EKVX NSCLC) [µM] | TGI (EKVX NSCLC) | GI50 (HCC-2998 colon) [µM] | TGI (HCC-2998 colon) [µM] | TGI (SNB-19 CNS) | TGI (OVCAR-8 ovarian) | TGI (SF-268 CNS)
1 | CN(CCCCCl)P(=O)(OCc1ccc([N+](=O)[O-])o1)OCC1OC(n2ccc(N)nc2=O)C(F)(F)C1O (stereo unspecified) | 0.257 | 0.108 | 0.494 | > 100 µM | 1.57 | 88.2 | 43.1 | > 100 µM | 0.257 | 0.878 | > 54.6 µM | 1.92 | > 100 µM | 2.48 | > 75.4 µM | 3.15 | 49.1 | – | – | –
2 | Cc1ccc(NC(=O)Cc2ccc(/C=C/C(=O)c3ncc[nH]3)cc2)cc1 | 6.65 | 7.24 | 5.24 | 21.6 µM | 6.42 | > 25 | 11.5 | > 25 µM | 5.32 | 7.9 | > 25 µM | 6.84 | > 25 µM | 13.5 | > 25 µM | 6.73 | > 25 | > 25 µM | > 25 µM | > 25 µM
3 | COc1cccc(C2C3=C(COC3=O)N(CCO)c3cc(OC)ccc32)c1 (stereo unspecified) | 0.221 | 0.206 | 0.124 | > 100 µM | 0.295 | > 28.5 | 0.13 | > 100 µM | 0.181 | 0.0422 | > 100 µM | 0.442 | > 100 µM | 22.6 | > 100 µM | 0.137 | > 100 | > 100 µM | > 100 µM | > 100 µM
4 | CC(=O)N1N=C(c2ccc(Nc3nc(Nc4ccc(Cl)cc4)nc(Nc4ccc(Cl)cc4)n3)cc2)CC1c1ccc([N+](=O)[O-])cc1 (stereo unspecified) | 3.8 | 8.54 | 13.5 | 47.4 µM | 10.6 | 88.9 | 8.79 | 74.4 µM | 7.14 | 1.87 | 13.6 µM | 19.4 | > 100 µM | 4.22 | > 40.1 µM | 19.3 | > 80.1 | 38.7 µM | > 100 µM | > 100 µM
5 | O=S(=O)(Cc1ccc(Cl)cc1Cl)c1ccc(Cl)cc1 | 1.38 | 1.22 | 3.36 | > 100 µM | 1.54 | > 75.4 | 1.97 | > 100 µM | 0.827 | 0.495 | 10.8 µM | 4.28 | > 100 µM | 2.11 | > 100 µM | 1.09 | 8.97 | > 100 µM | > 100 µM | > 100 µM
6 | CCC1C(=O)OCc2c1cc1n(c2=O)Cc2cc3ccccc3nc2-1 (stereo unspecified) | – | – | – | 25.5 µM | – | > 59.5 | – | > 100 µM | – | – | > 33.7 µM | – | > 100 µM | – | > 100 µM | – | > 100 | > 100 µM | > 70.9 µM | > 100 µM
7 | O=C1c2cccnc2C(=O)C2C3C=CC(C3)C12 (stereo unspecified) | – | – | – | 20.4 µM | – | 24 | – | 39.3 µM | – | – | 26.6 µM | – | 35.8 µM | – | 28.8 µM | – | 29.9 | 34.3 µM | 30 µM | 24.3 µM
8 | COc1cc2c3c(n(CCCN(CCN)CCCn4c5c(c6cc(OC)c(OC)cc6c4=O)C(=O)c4cc6c(cc4-5)OCO6)c(=O)c2cc1OC)-c1cc2c(cc1C3=O)OCO2 | 0.741 | 1.53 | 0.33 | 1.64 µM | 5.08 | > 79.3 | > 37.1 | > 100 µM | 0.794 | 0.36 | 6.16 µM | 3.78 | 18.9 µM | 11.9 | > 62.6 µM | 0.407 | 5.98 | > 100 µM | > 42.2 µM | > 29.3 µM
9 | COC(=O)C1=C(C)NC(C)=C(C(=O)OC)C1/C=C(\Cl)c1ccc(Cl)c(Cl)c1 | 18.8 | 36.1 | 16.3 | 29.8 µM | 16.6 | 32.2 | 13.2 | 27.7 µM | 13.1 | 6.26 | 21.6 µM | 16.8 | 30.4 µM | 10.7 | 24.9 µM | 17.3 | 31.1 | 41.6 µM | > 100 µM | 28.4 µM
10 | O=c1c2c3c(sc2n2c(-c4cc(-c5ccccc5)no4)nnc2n1Cc1ccccc1)CCCC3 | 31.8 | 21.4 | 14.8 | 57 µM | 13.7 | 63.2 | 22.9 | 76 µM | 15.6 | 6.53 | 31.7 µM | 91.2 | > 100 µM | 8.63 | > 67.6 µM | 20.7 | > 76.6 | > 100 µM | > 100 µM | 68.3 µM
11 | CCCc1cc(O)c2c3c(c(=O)oc2c1)CN(C)CC3 | > 100 | > 100 | 67.1 | > 100 µM | 48.1 | > 100 | 21.8 | 67.4 µM | > 100 | 28.3 | > 100 µM | > 100 | > 100 µM | > 100 | > 100 µM | 30.7 | 69.7 | > 100 µM | > 100 µM | > 100 µM
12 | O=c1c2ccccc2c(Br)c(Br)c2ccccc12 | 45.4 | 13.9 | 21 | 41.9 µM | 19 | 34.4 | 24.9 | > 100 µM | 8.89 | 17.1 | 36 µM | 30.2 | > 100 µM | 14.2 | 64.3 µM | 17.3 | 35.8 | > 100 µM | 34.2 µM | 25 µM
13 | S=C(N/N=C(/c1ccccc1)c1ccccn1)N1CCCCC1 | 1.1 | < 0.001 | < 0.001 | 2.33 µM and 2.78 µM | – | 2.53 | 1.08 | 2.55 µM and 2.82 µM | 0.323 | 0.188 | 1.75 µM and 2.11 µM | < 0.001 | 2.49 µM and 2.11 µM | 1.21 | 2.45 µM and 0.558 µM | – | 2.1 | 2.9 µM and 5.49 µM | 1.96 µM and 1.69 µM | 2.5 µM and 5.35 µM
14 | C/C=C/C/C=C/CCC(=O)[C@H]1O[C@H]1C(N)=O | 14.5 | 17.7 | 13 | 28.2 µM | – | 25.3 | – | 28.3 µM | – | – | 34.8 µM | 16.8 | 31.4 µM | 14.1 | 28.9 µM | 15 | 28.5 | 29.5 µM | > 74.3 µM | 39.3 µM
15 | COc1cc(C(=O)N2N=C(c3ccc(S(C)(=O)=O)cc3)CC2c2ccco2)cc(OC)c1OC (stereo unspecified) | 5.92 | 20.2 | 26.7 | > 100 µM | 5.2 | > 71.7 | 22.2 | > 100 µM | 8.93 | 3.04 | > 100 µM | > 80.2 | > 100 µM | 21.3 | > 100 µM | 21 | > 100 | > 100 µM | > 100 µM | > 100 µM
16 | COc1cc(-c2nc3sccn3c2-c2ccnc(NCCNS(=O)(=O)c3ccc(Cl)cc3)n2)ccc1F | 74 | 2.71 | 5.01 | > 100 µM | 2.61 | > 100 | 4.37 | > 100 µM | 5.75 | 4.07 | > 100 µM | 55 | > 100 µM | 5.04 | > 100 µM | 5.82 | > 100 | > 100 µM | > 100 µM | > 100 µM
17 | CCOC(=O)c1sc2ncn(Cc3cccc(Br)c3)c(=O)c2c1C | > 100 | 51.1 | 19.4 | 65.4 µM | 28.7 | > 100 | 71.6 | > 100 µM | 54.9 | 64.9 | > 100 µM | > 100 | > 100 µM | 25 | > 100 µM | 66.8 | > 100 | > 100 µM | > 100 µM | > 100 µM
18 | CC(=O)Nc1ccc(/C=C/C(=O)c2ccccc2)cc1 | 13.5 | 12.3 | 14.8 | 29.3 µM | 20.1 | 41.2 | 20.5 | 44.2 µM | 15.9 | 14.4 | 31.7 µM | 18.3 | 45.3 µM | 16.6 | 33.6 µM | 15.5 | 29.7 | 34.1 µM | 30.4 µM | 37.5 µM
19 | Nc1ccccc1-c1ccc([N+](=O)[O-])cc1 | 24.2 | 63.4 | > 100 | > 100 µM | 4.54 | 37.1 | 83.5 | > 100 µM | 12.9 | 2.18 | 64.8 µM | 31.8 | > 100 µM | 8.58 | > 100 µM | 2.25 | 8.54 | > 100 µM | > 100 µM | > 100 µM
20 | COc1cc2cc(C(=O)CCC(=O)O)sc2cc1OC | > 100 | > 100 | > 100 | > 100 µM | > 100 | > 100 | > 100 | > 100 µM | > 100 | > 100 | > 100 µM | > 100 | > 100 µM | > 100 | > 100 µM | > 100 | > 100 | > 100 µM | > 100 µM | > 100 µM
21 | CCC[CH2][Sn]([CH2]CCC)([O]C(=O)c1cc(F)ccc1F)[O][Sn]([CH2]CCC)([CH2]CCC)[O]C(=O)c1cc(F)ccc1F | 0.667 | 0.374 | 1.84 | 3.27 µM | 0.225 | 0.946 | 0.169 | 0.497 µM | 0.216 | 0.606 | 1.85 µM | 1.76 | 3.16 µM | 0.69 | 2.11 µM | 0.669 | 1.92 | 1.76 µM | 1.57 µM | 0.798 µM
22 | CC1=C(/C=C/C(=O)O)C(C)(C)CCC1 | – | – | – | > 100 µM | – | > 100 | – | > 100 µM | – | – | > 100 µM | – | > 100 µM | – | > 100 µM | – | > 100 | > 100 µM | > 100 µM | > 100 µM
